Values quoted from earlier work, collected in US20030215406A1, “Cosmetic or dermatological preparations containing aminogaunidine, derivatives thereof or structural analogs thereof” (Beiersdorf AG, priority 2000, published 2003).

N=C(N)NN [Aminoguanidine]
solubility in alcohol (solvent: alcohol): soluble | solubility in ether (solvent: ether): insoluble | solubility in water (solvent: water): soluble
